Assay results published in ChEMBL document CHEMBL5465560, “Selectivity Literature for EUbOPEN Chemogenomic Library” (2024).

Legend:
[1] = biological target: T1, Megakaryocyte-associated tyrosine-protein kinase (Homo sapiens) (UniProt P42679); assay: Selectivity interaction (KinomeScan (DiscoverX)) EUB0000666a MATK; details: at 10 µM
T1 sequence (whole entry): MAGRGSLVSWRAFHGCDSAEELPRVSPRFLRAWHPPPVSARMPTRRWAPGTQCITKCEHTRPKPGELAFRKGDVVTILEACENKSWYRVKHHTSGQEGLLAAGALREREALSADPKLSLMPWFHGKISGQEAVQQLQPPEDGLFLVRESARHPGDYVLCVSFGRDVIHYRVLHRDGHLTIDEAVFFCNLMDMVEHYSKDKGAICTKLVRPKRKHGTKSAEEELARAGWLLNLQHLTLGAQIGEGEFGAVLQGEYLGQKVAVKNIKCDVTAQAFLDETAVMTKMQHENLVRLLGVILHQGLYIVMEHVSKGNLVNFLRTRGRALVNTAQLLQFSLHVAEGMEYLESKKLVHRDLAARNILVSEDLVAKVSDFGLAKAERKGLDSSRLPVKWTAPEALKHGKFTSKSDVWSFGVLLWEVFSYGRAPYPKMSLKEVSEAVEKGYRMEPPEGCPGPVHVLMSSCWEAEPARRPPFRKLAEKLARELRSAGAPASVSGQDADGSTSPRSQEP

[2] = biological target: Insulin receptor-related protein (Homo sapiens) (UniProt P14616); assay: Selectivity interaction (KinomeScan (DiscoverX)) EUB0001079a INSRR; details: at 1 µM
B2 bradykinin receptor = B2 bradykinin receptor (Homo sapiens, UniProt P30411); assay: Selectivity interaction (Bradykinin 2 receptor binding assay, human recombinant ) EUB0000877a BDKRB2
[3] = biological target: T2, Dual specificity mitogen-activated protein kinase kinase 6 (Homo sapiens) (UniProt P52564); assay: Selectivity interaction (ActivX KiNativ screen (kinase selectivity in THP-1 cell lysates)) EUB0000639a MAP2K6; format: subcellular; details: lysate, at 0.04 µM
T2 sequence (whole entry): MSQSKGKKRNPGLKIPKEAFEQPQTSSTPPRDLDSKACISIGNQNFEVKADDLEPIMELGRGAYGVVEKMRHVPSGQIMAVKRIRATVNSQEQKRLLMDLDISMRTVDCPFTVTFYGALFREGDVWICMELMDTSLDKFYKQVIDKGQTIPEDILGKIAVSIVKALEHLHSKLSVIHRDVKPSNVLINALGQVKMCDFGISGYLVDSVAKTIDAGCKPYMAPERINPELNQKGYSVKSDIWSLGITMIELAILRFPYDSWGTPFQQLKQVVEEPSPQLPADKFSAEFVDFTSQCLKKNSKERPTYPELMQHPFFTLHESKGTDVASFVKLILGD

[4] = biological target: T3, Phosphatidylinositol 5-phosphate 4-kinase type-2 alpha (Homo sapiens) (UniProt P48426); assay: Selectivity interaction (ActivX KiNativ screen (kinase selectivity in THP-1 cell lysates)) EUB0000639a PIP4K2A; format: subcellular; details: lysate
T3 sequence (whole entry): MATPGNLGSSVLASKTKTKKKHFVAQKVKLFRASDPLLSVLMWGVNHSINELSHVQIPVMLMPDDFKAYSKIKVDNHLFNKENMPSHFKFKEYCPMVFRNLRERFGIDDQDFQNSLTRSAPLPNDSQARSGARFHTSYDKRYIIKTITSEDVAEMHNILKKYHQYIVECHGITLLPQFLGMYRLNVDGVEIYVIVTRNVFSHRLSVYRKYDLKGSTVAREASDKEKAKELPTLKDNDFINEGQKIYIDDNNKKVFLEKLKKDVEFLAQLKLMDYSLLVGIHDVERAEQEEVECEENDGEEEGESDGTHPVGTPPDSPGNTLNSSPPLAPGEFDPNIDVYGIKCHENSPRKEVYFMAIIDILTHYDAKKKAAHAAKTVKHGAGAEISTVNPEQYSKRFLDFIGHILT

[5] = biological target: Epidermal growth factor receptor (Homo sapiens, UniProt P00533)
[6] = biological target: Phosphatidylinositol 4,5-bisphosphate 3-kinase catalytic subunit beta isoform (Homo sapiens) (UniProt P42338); assay: Selectivity interaction (ActivX KiNativ screen (ex vivo kinase selectivity in human PBMCs)) EUB0001619a PIK3CB; format: cell-based; details: PBMC, at 1 µM
[7] = biological target: T4, Serine/threonine-protein kinase ICK (Homo sapiens) (UniProt Q9UPZ9); assay: Selectivity interaction (KinomeScan (DiscoverX)) EUB0000655a ICK; details: at 10 µM
T4 sequence (whole entry): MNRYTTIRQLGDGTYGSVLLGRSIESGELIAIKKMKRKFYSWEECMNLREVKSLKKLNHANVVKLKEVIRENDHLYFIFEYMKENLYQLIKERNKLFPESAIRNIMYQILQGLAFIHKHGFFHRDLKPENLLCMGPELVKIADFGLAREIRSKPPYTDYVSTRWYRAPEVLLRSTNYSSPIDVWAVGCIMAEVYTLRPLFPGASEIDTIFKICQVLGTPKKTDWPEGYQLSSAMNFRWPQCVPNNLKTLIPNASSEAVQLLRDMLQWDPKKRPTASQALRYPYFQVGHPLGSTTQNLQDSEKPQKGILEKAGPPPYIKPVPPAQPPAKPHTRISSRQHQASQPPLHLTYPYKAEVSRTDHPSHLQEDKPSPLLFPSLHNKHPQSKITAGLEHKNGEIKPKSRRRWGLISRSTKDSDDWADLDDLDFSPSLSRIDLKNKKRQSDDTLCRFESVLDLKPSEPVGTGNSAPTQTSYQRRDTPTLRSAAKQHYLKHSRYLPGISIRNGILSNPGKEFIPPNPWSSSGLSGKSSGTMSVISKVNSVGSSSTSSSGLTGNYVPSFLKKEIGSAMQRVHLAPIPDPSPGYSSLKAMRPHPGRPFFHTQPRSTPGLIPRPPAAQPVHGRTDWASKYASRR

Chain of Epidermal growth factor receptor (P00533 whole entry, canonical isoform): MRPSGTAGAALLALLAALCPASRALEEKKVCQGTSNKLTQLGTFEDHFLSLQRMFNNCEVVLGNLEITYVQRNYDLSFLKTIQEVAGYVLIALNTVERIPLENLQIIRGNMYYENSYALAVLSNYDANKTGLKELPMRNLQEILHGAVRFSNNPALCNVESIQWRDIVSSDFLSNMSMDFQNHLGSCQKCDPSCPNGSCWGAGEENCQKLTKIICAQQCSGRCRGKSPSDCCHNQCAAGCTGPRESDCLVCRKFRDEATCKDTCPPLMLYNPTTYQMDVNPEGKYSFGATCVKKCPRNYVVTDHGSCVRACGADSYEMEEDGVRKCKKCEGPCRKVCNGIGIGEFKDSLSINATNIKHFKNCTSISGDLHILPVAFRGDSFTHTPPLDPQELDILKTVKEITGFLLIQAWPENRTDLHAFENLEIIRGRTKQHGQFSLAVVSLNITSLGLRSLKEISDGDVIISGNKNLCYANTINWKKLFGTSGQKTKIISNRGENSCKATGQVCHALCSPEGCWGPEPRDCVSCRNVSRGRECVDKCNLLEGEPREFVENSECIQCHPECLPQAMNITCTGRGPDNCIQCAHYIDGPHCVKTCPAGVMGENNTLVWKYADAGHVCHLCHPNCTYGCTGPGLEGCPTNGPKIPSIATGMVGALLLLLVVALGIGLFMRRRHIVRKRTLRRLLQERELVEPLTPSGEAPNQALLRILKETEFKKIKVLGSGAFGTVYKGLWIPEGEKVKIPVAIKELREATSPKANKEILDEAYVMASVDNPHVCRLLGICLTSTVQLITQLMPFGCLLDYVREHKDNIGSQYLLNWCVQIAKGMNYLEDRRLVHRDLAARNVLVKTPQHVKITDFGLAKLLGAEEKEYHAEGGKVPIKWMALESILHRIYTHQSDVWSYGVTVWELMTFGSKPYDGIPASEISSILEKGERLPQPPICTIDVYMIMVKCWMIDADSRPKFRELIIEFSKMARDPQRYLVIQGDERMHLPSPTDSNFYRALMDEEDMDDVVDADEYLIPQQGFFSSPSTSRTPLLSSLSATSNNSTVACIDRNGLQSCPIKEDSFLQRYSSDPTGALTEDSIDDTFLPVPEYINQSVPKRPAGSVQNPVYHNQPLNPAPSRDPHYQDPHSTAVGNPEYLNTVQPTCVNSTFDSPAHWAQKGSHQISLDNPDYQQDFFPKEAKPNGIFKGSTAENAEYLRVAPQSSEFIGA
Chain of Insulin receptor-related protein (Homo sapiens) (P14616 27-742 limits assumed): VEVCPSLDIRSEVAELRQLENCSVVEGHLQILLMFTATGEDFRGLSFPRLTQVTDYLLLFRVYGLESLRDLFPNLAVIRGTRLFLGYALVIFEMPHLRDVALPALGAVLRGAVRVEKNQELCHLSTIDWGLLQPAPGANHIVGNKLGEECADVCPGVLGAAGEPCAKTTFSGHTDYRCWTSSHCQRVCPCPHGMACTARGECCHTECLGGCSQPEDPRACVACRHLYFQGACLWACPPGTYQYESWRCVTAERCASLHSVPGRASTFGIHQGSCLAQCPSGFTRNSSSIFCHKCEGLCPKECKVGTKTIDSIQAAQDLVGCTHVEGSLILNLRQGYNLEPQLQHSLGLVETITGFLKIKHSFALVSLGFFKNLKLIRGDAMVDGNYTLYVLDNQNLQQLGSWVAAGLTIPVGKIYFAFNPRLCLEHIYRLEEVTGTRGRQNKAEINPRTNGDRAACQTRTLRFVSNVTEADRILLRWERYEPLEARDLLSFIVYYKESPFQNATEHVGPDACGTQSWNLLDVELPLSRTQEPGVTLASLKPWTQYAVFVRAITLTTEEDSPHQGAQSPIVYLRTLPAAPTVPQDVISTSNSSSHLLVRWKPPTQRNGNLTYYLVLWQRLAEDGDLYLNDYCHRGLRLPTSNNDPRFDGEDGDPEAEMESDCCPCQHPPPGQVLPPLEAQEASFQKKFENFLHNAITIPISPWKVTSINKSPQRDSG
Chain of Insulin receptor-related protein (Homo sapiens) (P14616 747-1297 limits assumed): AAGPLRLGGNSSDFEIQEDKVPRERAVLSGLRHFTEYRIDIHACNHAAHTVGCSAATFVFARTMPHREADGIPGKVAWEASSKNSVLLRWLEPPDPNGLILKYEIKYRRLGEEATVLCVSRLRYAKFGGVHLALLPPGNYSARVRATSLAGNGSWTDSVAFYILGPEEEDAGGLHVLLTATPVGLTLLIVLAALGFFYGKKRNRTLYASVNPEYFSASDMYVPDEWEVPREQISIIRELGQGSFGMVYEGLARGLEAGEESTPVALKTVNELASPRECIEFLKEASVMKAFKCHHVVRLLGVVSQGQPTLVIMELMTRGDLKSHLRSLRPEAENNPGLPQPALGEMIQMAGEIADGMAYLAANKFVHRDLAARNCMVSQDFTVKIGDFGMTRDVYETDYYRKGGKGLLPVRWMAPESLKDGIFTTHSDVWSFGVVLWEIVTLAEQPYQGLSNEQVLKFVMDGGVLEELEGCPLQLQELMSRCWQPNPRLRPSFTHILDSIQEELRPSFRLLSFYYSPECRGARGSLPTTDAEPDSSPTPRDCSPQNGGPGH
Chain of Phosphatidylinositol 4,5-bisphosphate 3-kinase catalytic subunit beta isoform (Homo sapiens) (P42338 whole entry, looked up, canonical isoform): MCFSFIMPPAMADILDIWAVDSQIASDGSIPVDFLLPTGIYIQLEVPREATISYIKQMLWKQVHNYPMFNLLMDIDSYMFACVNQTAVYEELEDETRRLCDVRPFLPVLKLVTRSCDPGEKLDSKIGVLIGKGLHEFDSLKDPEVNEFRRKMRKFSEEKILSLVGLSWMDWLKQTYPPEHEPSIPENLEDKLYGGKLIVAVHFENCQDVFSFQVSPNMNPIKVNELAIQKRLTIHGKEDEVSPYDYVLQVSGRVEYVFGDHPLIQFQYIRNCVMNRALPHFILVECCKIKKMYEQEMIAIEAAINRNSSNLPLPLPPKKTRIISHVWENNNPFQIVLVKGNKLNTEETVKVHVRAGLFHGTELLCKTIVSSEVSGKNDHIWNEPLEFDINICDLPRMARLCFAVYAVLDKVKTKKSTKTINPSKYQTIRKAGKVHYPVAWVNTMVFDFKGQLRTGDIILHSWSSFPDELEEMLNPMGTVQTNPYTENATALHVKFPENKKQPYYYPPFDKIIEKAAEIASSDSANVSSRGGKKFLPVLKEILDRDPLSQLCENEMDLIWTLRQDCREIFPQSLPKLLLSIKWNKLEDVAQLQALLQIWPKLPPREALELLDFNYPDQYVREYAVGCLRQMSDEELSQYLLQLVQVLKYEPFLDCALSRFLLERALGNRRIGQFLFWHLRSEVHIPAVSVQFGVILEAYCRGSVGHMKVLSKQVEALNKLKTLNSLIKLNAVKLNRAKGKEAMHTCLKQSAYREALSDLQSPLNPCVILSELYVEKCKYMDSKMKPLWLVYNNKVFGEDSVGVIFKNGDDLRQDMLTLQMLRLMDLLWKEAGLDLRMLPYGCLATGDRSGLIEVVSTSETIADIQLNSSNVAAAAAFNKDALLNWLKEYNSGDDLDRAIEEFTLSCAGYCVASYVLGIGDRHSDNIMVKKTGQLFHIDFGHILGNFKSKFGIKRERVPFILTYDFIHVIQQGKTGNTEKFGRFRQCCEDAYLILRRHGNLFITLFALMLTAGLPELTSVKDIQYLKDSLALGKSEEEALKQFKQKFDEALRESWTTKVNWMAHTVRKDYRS
Chain of B2 bradykinin receptor (P30411 whole entry): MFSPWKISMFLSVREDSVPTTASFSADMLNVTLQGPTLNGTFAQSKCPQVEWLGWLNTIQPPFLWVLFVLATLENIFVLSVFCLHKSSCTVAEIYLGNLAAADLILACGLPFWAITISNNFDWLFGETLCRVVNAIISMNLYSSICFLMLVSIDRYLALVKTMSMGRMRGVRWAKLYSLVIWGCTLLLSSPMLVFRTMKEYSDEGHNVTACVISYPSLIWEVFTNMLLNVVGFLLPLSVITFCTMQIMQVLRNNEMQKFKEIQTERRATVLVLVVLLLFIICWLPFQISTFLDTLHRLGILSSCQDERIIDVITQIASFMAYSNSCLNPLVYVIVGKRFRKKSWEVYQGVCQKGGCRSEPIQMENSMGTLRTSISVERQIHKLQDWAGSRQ

Structure (SMILES): O=C(NOC[C@H](O)CO)c1ccc(F)c(F)c1Nc1ccc(I)cc1F
- % of control [1]: 100%

Structure (SMILES): Nc1cnc(N2CCc3cc(S(=O)(=O)Nc4c(F)cc(Cl)cc4F)cc(N4CCCC4=O)c32)nc1 [TP-020n]
- % of control [2]: 100%

Structure (SMILES): CCC(=O)N1CC[C@H](Nc2ncnc3c2CN(c2cnc(OC)c(C(F)(F)F)c2)CC3)C1 [LENIOLISIB]
- IC50 (B2 bradykinin receptor): > 30 µM

Structure (SMILES): CC[C@@H]1[C@H](F)C(=O)N[C@@H]1COc1nccc2cc(C(N)=O)c(OC)cc12 [ZIMLOVISERTIB]
- % of inhibition [3]: 4.7%
- % of inhibition ([4]; at 0.01 µM): -3.1%
- % of inhibition ([4]; at 0.04 µM): 1.9%
- % of inhibition ([4]; at 0.2 µM): -7.7%
- % of inhibition ([4]; at 1 µM): -0.6%
- % of inhibition ([4]; at 5 µM): -9%

Structure (SMILES): CCc1cccc(CC)c1NC(=O)c1nn(C)c2c1CCc1cnc(Nc3ccc(C(=O)NC4CCN(C)CC4)cc3OC(F)(F)F)nc1-2
- IC50 [5]: > 10 µM

Structure (SMILES): N#Cc1cccc(-c2c[nH]c3ncnc(N4CCOCC4)c23)c1
- % of inhibition [6]: -3%

Structure (SMILES): CN(C)CCOc1ccc(-c2nc(-c3ccncc3)c(-c3ccc4c(c3)CC/C4=N\O)[nH]2)cc1
- % of control [7]: 100%
